# Several values for one entry are separate records, joined by “and”; a condition that tells them apart may be missing. Identical values can stand only once.
# How the values were obtained:
# [1] = system: L-929 (ATCC cell lines CCL-1, NCTC clone 929) Mus musculus mouse fibroblast cells; test: In-vitro cytotoxicity test by extraction method; type: cell-based; conditions: extract in contact with L-929 cells for 48 hours
# Protocol: In-vitro assessment was done to check the cytotoxic or necrotic potential of the 42-O-(tetrahydrofuran-3-yl) rapamycin and 42-O-(oxetan-3-yl) rapamycin compounds by extraction method. In this study extracts of test substance were kept in contact with a multiple culture of L-929 (ATCC cell lines CCL-1, NCTC clone 929) Mus musculus mouse fibroblast cells for 48 hours. The cells were examined microscopically to assess the changes for its general morphology, vacuolization, detachment, cell lysis and membrane integrity.
# rabbit blood [2] = test: In-vitro haemolysis test; type: cell-based; conditions: for Haemolytic Index, Mean ± S. D.: mean of three test extracts, rabbit blood, 4 hrs
# Protocol: Haemolysis test was conducted on rabbit blood by in-vitro method to check the haemolytic effect of 42-O-(tetrahydrofuran-3-yl) rapamycin (Merilimus-1) compound and 42-O-(oxetan-3-yl) rapamycin (Merilimus-2) compound. In this study the extracts of the test substances in triplicate were kept in contact with rabbit blood and incubated for 4 hrs. The concentration of plasma haemoglobin liberated in supernatant was calculated by comparing with absorbance of the standard solution in a spectrophotometer at 540 nm.
# [3] = Stability analysis (HPLC purity on storage) without BHT at various temperatures; type: physicochemical; conditions: for Purity (%): without BHT
# Protocol: (§1) To check the purity of the 42-O-(heteroalkoxyalkyl) rapamycin compounds the following condition was followed by using High Performance Liquid Chromatography, Phenomenex Synergi Hydro-RP 80a (250×4.6 ) mm, 4 micron column. The mobile phase was 65:15:20 methanol:acetonitile:water mixture. The detector was set at 276 nm and the flow rate was adjusted to 1.5 mL/min. Column temperature was 40° C. 2.0 μg of 42-O-(heteroalkoxyalkyl) rapamycin compounds was injected onto the column in a volume of 5.0 μL methanol with run time of 50 min.
# The purity loss was higher at increased temperature, but there was no apparent change in the impurity profile. Table 2A presents the purity of various 42-O-(heteroalkoxyalkyl) rapamycin compounds at different time intervals and temperature conditions.
# rabbit blood [4] = test: Haemocompatibility test (thrombosis, coagulation, platelet count, leucocyte count); type: cell-based
# Protocol: Haemocompatibility test is conducted to evaluate biological safety of the blood contacting 42-O-([…]) rapamycin and 42-O-(oxetan-3-yl) rapamycin compounds for the medical device. The interaction of test substance with rabbit blood was checked for thrombosis, coagulation, platelet count and leucocyte count.
# [5] = system: human aorta smooth muscle cell cultures (hAoSMCs); test: In-vitro anti-proliferative potency, BrdU assay, human smooth muscle cells; type: cell-based; conditions: BrdU incorporation, over 5 orders of magnitude concentration, compared with rapamycin
# Text: (§2) In-vitro assessment of relative anti-proliferative effect of novel mTOR inhibitors 42-O-(oxetan-3-yl) rapamycin compound and 42-O-(tetrahydrofuran-3-yl) rapamycin compound with rapamycin was done on human and rabbit smooth muscle cell culture models. In which, human aorta and rabbit illiac artery smooth muscle cell cultures were subjected to increasing doses of 42-O-(oxetan-3-yl) rapamycin compound 42-O-(tetrahydrofuran-3-yl) rapamycin compound and rapamycin over 5 orders of magnitude concentration in the cell culture medium. The ability of the cell culture to reproduce was assessed after drug exposure by addition of a BromodeoxyUridine (BrdU) coloured reagent which causes a colour change in the surviving cells. The extent of colour development was quantified at 450 nm wavelength using a spectrophotometer microplate reader (BMG Labtech, FLUOstar OPTIMA). […] On the contrary, lower OD values reflect less incorporation on BrdU and a shift towards cell inhibition. Growth inhibition was calculated by subtracting positive control OD values, which represent 100% uninhibited growth.
# [6] = Stability analysis (HPLC purity on storage) with various concentrations of BHT at 40° C.; type: physicochemical; conditions: sealed container
# Protocol: as §1
# The inventors have also conducted the stability study of various 42-O-(heteroalkoxyalkyl) rapamycin compounds as mentioned above using various BHT concentrations. The study was conducted at 40° C. temperature in sealed container for 8 weeks.
# 42-O-(heteroalkoxyalkyl) rapamycin compounds obtained as per procedure described in Example 1 are respectively added with anti-oxidant, namely Butylated Hydroxytoluene (or BHT), at a concentration of 0.1%, 0.2%, 0.5%, and 1.0% (w/w) based on 100% (w/w) of 42-O-(heteroalkoxyalkyl) rapamycin compounds in sealed container to study the stability at 40° C. temperature. […] The purity data with the addition of different amounts of anti-oxidant as added to 42-O-(tetrahydrofuran-3-yl) rapamycin compound, 42-O-(oxetan-3-yl) rapamycin compound and 42-O-(tetrahydropyran-3-yl) rapamycin compound checked at different time intervals are summarized in Table 2B as below mentioned.
# [7] = system: rabbit illiac artery smooth muscle cell cultures (RbIASMCs); test: In-vitro anti-proliferative potency, BrdU assay, rabbit smooth muscle cells; type: cell-based; conditions: BrdU incorporation, over 5 orders of magnitude concentration, compared with rapamycin
# Text: as §2
# [8] = test group, individual rabbits No. 1-3
smiles,measurement,setting,value
"COC1CC(C[C@H](C)[C@@H]2CC(=O)[C@H](C)/C=C(\C)C(O)[C@@H](OC)C(=O)[C@H](C)C[C@H](C)/C=C/C=C/C=C(\C)[C@@H](OC)C[C@@H]3CC[C@@H](C)[C@@](O)(O3)C(=O)C(=O)N3CCCC[C@H]3C(=O)O2)CCC1OC1CCOC1 (some centres unmarked) [Merilimus-1, 42-O-(tetrahydrofuran-3-yl) rapamycin]",Toxic effect on cells (in words),[1],did not reveal any toxic effect on cells
same,Haemolytic Index,"rabbit blood [2]; individual test extracts 1-3, rabbit blood, incubated 4 hrs, = Haemoglobin released/Haemoglobin present × 100",1.4 and 1.7 and 1.9
same,"Haemolytic Index, Mean ± S. D.",rabbit blood [2],1.7 ± 0.02
same,"Haemolytic Index, Mean ± S. D.",rabbit blood [2]; listed as 42-O-(tetrahydrofuran-3-yl) rapamycin,1.7
same,Haemolytic nature (in words),rabbit blood [2]; on the basis of haemolytic index,non-haemolytic
same,Stability (in words),[3]; purified compounds without anti-oxidant,more thermally stable
same,Purity (%),"[3]; 5° C. (sealed), 00 weeks after synthesis",98.6%
same,Purity (%),"[3]; 5° C. (sealed), 02 weeks after synthesis",97.8%
same,Purity (%),"[3]; 5° C. (sealed), 04 weeks after synthesis",97.0%
same,Purity (%),"[3]; 5° C. (sealed), 08 weeks after synthesis",96.7%
same,Purity (%),"[3]; 5° C. (sealed), 12 weeks after synthesis",96.3%
same,Purity (%),"[3]; 25° C. (sealed), 00 weeks after synthesis",98.7%
same,Purity (%),"[3]; 25° C. (sealed), 02 weeks after synthesis",97.6%
same,Purity (%),"[3]; 25° C. (sealed), 04 weeks after synthesis",96.9%
same,Purity (%),"[3]; 25° C. (sealed), 08 weeks after synthesis",96.7%
same,Purity (%),"[3]; 25° C. (sealed), 12 weeks after synthesis",94.1%
same,Purity (%),"[3]; 25° C. (unsealed), 00 weeks after synthesis",98.4%
same,Purity (%),"[3]; 25° C. (unsealed), 02 weeks after synthesis",97.1%
same,Purity (%),"[3]; 25° C. (unsealed), 04 weeks after synthesis",96.7%
same,Purity (%),"[3]; 25° C. (unsealed), 08 weeks after synthesis",95.2%
same,Purity (%),"[3]; 25° C. (unsealed), 12 weeks after synthesis",93.6%
same,Purity (%),"[3]; 40° C. (sealed), 00 weeks after synthesis",98.6%
same,Purity (%),"[3]; 40° C. (sealed), 02 weeks after synthesis",96.7%
same,Purity (%),"[3]; 40° C. (sealed), 04 weeks after synthesis",96.3%
same,Purity (%),"[3]; 40° C. (sealed), 08 weeks after synthesis",94.7%
same,Purity (%),"[3]; 40° C. (sealed), 12 weeks after synthesis",93.5%
same,Haemocompatibility (in words),rabbit blood [4]; all haematological findings compared to control,haemocompatible
same,Coagulation (PTT in sec.),rabbit blood [4]; [8],36 sec. (2×) and 39 sec.
same,Differential leucocyte count: Basophile %,rabbit blood [4]; [8],00%
same,Differential leucocyte count: Eosinophil %,rabbit blood [4]; [8],01%
same,Differential leucocyte count: Lymphocyte %,rabbit blood [4]; [8],43% and 50% (2×)
same,Differential leucocyte count: Monocyte %,rabbit blood [4]; [8],01% (2×) and 02%
same,Differential leucocyte count: Neutrophil %,rabbit blood [4]; [8],55% and 47% and 48%
same,Distribution of cells: Platelets,rabbit blood [4]; [8],Normal
same,Distribution of cells: RBC,rabbit blood [4]; [8],Normal
same,Distribution of cells: WBC,rabbit blood [4]; [8],Normal
same,Leucocyte count,rabbit blood [4]; [8],7.3 Thousand/cmm and 6.8 Thousand/cmm and 7.4 Thousand/cmm
same,Platelet count,rabbit blood [4]; [8],4.9 lakhs/cmm and 4.6 lakhs/cmm and 4.5 lakhs/cmm
same,Thrombosis,rabbit blood [4]; [8],Nil
same,Growth suppression of smooth muscle cells (in words),[5],more effectively inhibited growth of smooth muscle cells than rapamycin
same,Purity (%),"[6]; BHT 0.0% (w/w), 0 week",98.6%
same,Purity (%),"[6]; BHT 0.0% (w/w), 2 weeks",96.7%
same,Purity (%),"[6]; BHT 0.0% (w/w), 4 weeks",96.3%
same,Purity (%),"[6]; BHT 0.0% (w/w), 8 weeks",94.7%
same,Purity (%),"[6]; BHT 0.1% (w/w), 0 week",98.6%
same,Purity (%),"[6]; BHT 0.1% (w/w), 2 weeks",98.5%
same,Purity (%),"[6]; BHT 0.1% (w/w), 4 weeks",98.5%
same,Purity (%),"[6]; BHT 0.1% (w/w), 8 weeks",98.4%
same,Purity (%),"[6]; BHT 0.2% (w/w), 0 week",98.5%
same,Purity (%),"[6]; BHT 0.2% (w/w), 2 weeks",98.5%
same,Purity (%),"[6]; BHT 0.2% (w/w), 4 weeks",98.5%
same,Purity (%),"[6]; BHT 0.2% (w/w), 8 weeks",98.4%
same,Purity (%),"[6]; BHT 0.5% (w/w), 0 week",98.5%
same,Purity (%),"[6]; BHT 0.5% (w/w), 2 weeks",98.4%
same,Purity (%),"[6]; BHT 0.5% (w/w), 4 weeks",98.4%
same,Purity (%),"[6]; BHT 0.5% (w/w), 8 weeks",98.3%
same,Purity (%),"[6]; BHT 1.0% (w/w), 0 week",98.5%
same,Purity (%),"[6]; BHT 1.0% (w/w), 2 weeks",98.4%
same,Purity (%),"[6]; BHT 1.0% (w/w), 4 weeks",98.4%
same,Purity (%),"[6]; BHT 1.0% (w/w), 8 weeks",98.3%
same,Purity after eight-weeks of storage,[6]; with various concentrations of BHT (concentration not given),98.3%
same,Growth suppression of smooth muscle cells (in words),[7],more effectively inhibited growth of smooth muscle cells than rapamycin
